Read-outs that look alike come from different tables or passages of the source. Square brackets hold non-standard residues; d marks the D form. Ends that are not written are not given here. Peptide text beside a SMILES is read from it. * marks the point of attachment. fluorescein = fluorescein label at the N-terminus via an aminohexanoic acid (Ahx) linker; FITC = O=C1OC2(c3ccc(O)cc3Oc3cc(O)ccc32)c2ccc(NC(=S)*)cc21; pS = N[C@@H](COP(=O)(O)O)C(=O)O; Ahx = NCCCCCC(=O)O
Columns and labels:
PIN1-NRF2 interaction [1] = biological target: T1, PIN1-NRF2 interaction (Homo sapiens, UniProt Q13526, M1N); assay: FP protein titration: GST-PIN1 titrated to fluorescently labelled NRF2 phospho-peptides in the presence of a fixed concentration of Pintide or PIN1 inhibitor; assay type: binding; conditions: for fold reduction in binding affinity of NRF2_209-222^pSer215 / fold reduction in binding affinity of NRF2_402-415^pSer408 / fold reduction in binding affinity of NRF2_571-584^pSer577: inhibitor 100 µM vs DMSO
T1 construct: host or cells: E. coli BL21 (DE3)
Method: First, GST-PIN1 was titrated to the fluorescently labelled Nrf 2 phospho-peptides (10 nM) in the presence of a fixed concentration of Pintide (10 µM).
In this study, we integrated three different PIN1 inhibitors, including juglone, epigallocatechin gallate (EGCG), and KPT-6566 (Fig. 6a). […] First, GST-PIN1 was titrated to the fluorescently labelled NRF2 phospho-peptides (10 nM) in the presence of a fixed concentration of PIN1 inhibitor (100 µM).
(§1) Fluorescence polarisation experiments were performed at room temperature in a buffer consisting of 5 mM HEPES pH 7.4, 30 mM NaCl, 0.1% v/v Tween20, and 1% v/v DMSO. Corning black, round-bottom, low-binding 384-well plates were utilized for all assays. The NRF2 mimicking fluorescein-labelled peptides, ETTMVPp[…] (NRF2_209-222^pSer215), DMVQPLp[…] (NRF2_402-415^pSer408), and EDGKPYp[…] (NRF2_571-584^pSer577) and the Pintide peptide (WFYpSPFLE) with the optimal binding for the WW domain were commercially purchased from China Peptides. For protein titration studies, GST-PIN1 was titrated to the fluorescently-labelled Nrf 2 phospho-peptides (10 nM) in the presence of a fixed concentration of PIN1 inhibitor (100 μM) or only DMSO as control group. To show PIN1 specificity, only GST protein was used as the control protein group. Fluorescence polarisation was measured using a CLARIOstar® Microplate Reader with an excitation wavelength of λex: 490/20 nm and an emission wavelength of λem: 535/20 nm. The binding affinities (Kd) were determined by sing GraphPad Prism 7 software, and sigmoidal curves were fitted using the equation: Y = Bottom + (Top − Bottom)/(1 + 10^((Log app.Kd − X) * HillSlope)), where Y represents the mP value, X denotes the log protein concentration, and Top and Bottom represent the plateaus in mP. Moreover, for the ligand displacement assays, the inhibitors were titrated to a fixed concentration of GST-PIN1 (1 μM) and fluorescently labelled NRF2 peptide (10 nM). The change in polarisation values were normalised to the DMSO control group and presented as percentage change.

PIN1-NRF2 interaction [2] = biological target: T1, PIN1-NRF2 interaction; assay: FP competition / ligand displacement assay: competitor titrated to fixed GST-PIN1 and fluorescently labelled NRF2 peptide; assay type: binding
Method: Next, a competition binding assay was used to determine if Pintide competed for PIN1 binding with the NRF2 peptides in a concentration dependent manner. Thus, Pintide was titrated to a fixed concentration of GST-PIN1 (1 µM) and fluorescently labelled NRF2 peptide (10 nM).
Thus, the inhibitors were titrated to a fixed concentration of GST-PIN1 (1 µM) and fluorescently labelled NRF2 peptide (10 nM).
as §1

breast cancer cells = system: breast cancer cells; set-up: method as in PMID 28598431; conditions: breast cancer cells treated with KPT-6566; cited from earlier work
PIN1 [3] = biological target: T2, PIN1 (Homo sapiens, UniProt Q13526); set-up: method as in PMID 28598431; conditions: disulfide exchange of the sulfonyl-acetate moiety at Cys113; cited from earlier work
PIN1 [4] = biological target: T2, PIN1; assay: Denaturing mass spectrometry of PIN1 incubated with KPT-6566 (covalent modification); conditions: PIN1 10 µM, KPT-6566 30 µM, 1 h
Method: KPT-6566 was previously shown to covalently modify the PIN1 PPIase domain at Cys113 via an unusual disulfide exchange of the sulfonyl-acetate moiety (KPT-65666-A, Fig. 7a)[31]. […] The remaining fragment of KPT-6566 (KPT-6566-B) was reported to be released into the cytoplasm. To verify this, we incubated PIN1 (10 µM) with KPT-6566 (30 µM) and then analysed the results by denaturing mass spectrometry. […] Of this, there was only a barely detectable trace of covalent PIN1 modification with KPT-6566-A (Supplementary Fig. 6a, b). […] Given these findings, the effects of both modes of covalent PIN1 modification by KPT-6566 on NRF2 phospho-peptide binding were subject to computational simulations.
From protein stock, PIN1 was diluted into an assay buffer solution of 50 mM HEPES, 300 mM NaCl pH 7.4 to a final concentration 10 μM and incubated with KPT-6566 (30 μM) for 1 h. Then, the sample was 2-times diluted by using H2O containing 0.1% v/v formic acid solution to give a final protein concentration of 0.1–1 mg/mL, and mass spectra were obtained using a Waters Acquity XEVO Q ToF instrument.

GST-PIN1 [5] = biological target: GST-PIN1 (Homo sapiens, UniProt Q13526, M1N); assay: Fluorescence polarisation (FP) direct binding: GST-PIN1 titrated to fluorescently labelled phospho-peptide; set-up: host or cells: E. coli BL21 (DE3); conditions: apparent Kd compared with Pintide
Method: as §1, with “Moreover, for the ligand displacement assays, the inhibitors were titrated to a fixed concentration of GST-PIN1 (1 μM) and fluorescently labelled NRF2 peptide (10 nM). The change in polarisation values were normalised to the DMSO control group and presented as percentage change.” left out

GST-PIN1 [6] = biological target: T3, GST-PIN1 (UniProt Q13526 1-163, methionine (Met 1) mutated to asparagine (Asn 1)); assay: FP; 10 uM Pintide
T3 sequence (Q13526 other isoform, or with tags, fused parts or gaps methionine (Met 1) mutated to asparagine (Asn 1)): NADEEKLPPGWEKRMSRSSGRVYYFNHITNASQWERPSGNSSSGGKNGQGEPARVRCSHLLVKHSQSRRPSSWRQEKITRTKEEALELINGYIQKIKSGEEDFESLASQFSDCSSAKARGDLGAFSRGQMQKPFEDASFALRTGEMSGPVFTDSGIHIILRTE

GST-PIN1 [7] = biological target: T4, GST-PIN1 (UniProt Q13526 1-163, methionine (Met 1) mutated to asparagine (Asn 1)); assay: fluorescence polarisation; GST-PIN1 (or GST) titrated to fluorescently labelled peptide (10 nM); room temperature; 5 mM HEPES pH 7.4, 30 mM NaCl, 0.1% v/v Tween20, 1% v/v DMSO; apparent Kd, variable slope dose-response fit; conditions: both partners purified
T4 construct: peptidyl-prolyl cis-trans isomerase PIN1 from the GST-PIN1 plasmid (Addgene #19027); also called GST-tagged PIN1 construct; source: E. coli BL21 (DE3), purified (Glutathione spin columns)
T4 sequence (Q13526 other isoform, or with tags, fused parts or gaps with the stated changes): as the sequence (Q13526 other isoform, or with tags, fused parts or gaps methionine (Met 1) mutated to asparagine (Asn 1)) above

GST-PIN1 [8] = biological target: T3, GST-PIN1; assay: FP; 100 uM KPT-6566
GST-PIN1 [9] = biological target: T3, GST-PIN1; assay: FP; 100 uM juglone
GST-PIN1 [10] = biological target: T3, GST-PIN1; assay: FP; 100 uM EGCG
GST-PIN1 [11] = biological target: T4, GST-PIN1; assay: fluorescence polarisation; competition: Pintide titrated to GST-PIN1 (1 uM) and fluorescently labelled NRF2(209-222) pSer215 peptide (10 nM); conditions: both partners purified
GST-PIN1 [12] = biological target: T4, GST-PIN1; assay: fluorescence polarisation; competition: Pintide titrated to GST-PIN1 (1 uM) and fluorescently labelled NRF2(402-415) pSer408 peptide (10 nM); conditions: both partners purified
GST-PIN1 [13] = biological target: T4, GST-PIN1; assay: fluorescence polarisation; competition: Pintide titrated to GST-PIN1 (1 uM) and fluorescently labelled NRF2(571-584) pSer577 peptide (10 nM); conditions: both partners purified
[14] = GST-PIN1 1 µM, labelled NRF2_402-415^pSer408 10 nM, read-out: IC50, inhibition of NRF2_402-415^pSer408 binding to PIN1
[15] = GST-PIN1 1 µM, labelled NRF2_571-584^pSer577 10 nM, read-out: IC50, inhibition of NRF2_571-584^pSer577 binding to PIN1

T2 sequence (Q13526 whole entry): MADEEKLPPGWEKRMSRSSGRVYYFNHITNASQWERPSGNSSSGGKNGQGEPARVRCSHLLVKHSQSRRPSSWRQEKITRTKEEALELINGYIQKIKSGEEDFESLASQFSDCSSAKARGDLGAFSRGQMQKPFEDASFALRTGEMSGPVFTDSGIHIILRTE
T1 sequence (Q13526 whole entry M1N): as the sequence (Q13526 other isoform, or with tags, fused parts or gaps methionine (Met 1) mutated to asparagine (Asn 1)) above
Chain of GST-PIN1 (Homo sapiens, UniProt Q13526, M1N) (Q13526 whole entry M1N): as the sequence (Q13526 other isoform, or with tags, fused parts or gaps methionine (Met 1) mutated to asparagine (Asn 1)) above

O=C(O[C@@H]1Cc2c(O)cc(O)cc2O[C@@H]1c1cc(O)c(O)c(O)c1)c1cc(O)c(O)c(O)c1 [EGCG, epigallocatechin gallate]
inhibitory effect on the binding of any NRF2 phospho-peptide to PIN1 (PIN1-NRF2 interaction [1]; inhibitor 100 µM, all three NRF2 phospho-peptides): did not show any inhibitory effect

CC(C)(C)c1ccc(S(=O)(=O)/N=C2\C=C(SCC(=O)O)C(=O)c3ccccc32)cc1 [KPT-6566]
IC50 (PIN1-NRF2 interaction [2]; [14]): 300 nM | IC50 (PIN1-NRF2 interaction [2]; [15]): 1400 nM | fold more potent than Juglone (PIN1-NRF2 interaction [2]; IC50 comparison, ligand displacement assay): ~ 20 fold | IC50 (PIN1-NRF2 interaction [2]; range over the three NRF2 phospho-peptides, read-out: IC50 range, inhibitory effect on PIN1-NRF2 interaction): 300 to 1400 nM | NRF2-mediated oxidative stress elements (microarray analysis) (breast cancer cells): upregulation | NRF2 downstream enzymes cFOS, HO1, NQO1, TXNRD1, DNAJB9 at the mRNA level (quantitative RT-PCR) (breast cancer cells): upregulation | PIN1 mass increase (PIN1 [3]): 90 Da | fold reduction in binding affinity of NRF2_209-222^pSer215 (PIN1-NRF2 interaction [1]): 25 fold | fold reduction in binding affinity of NRF2_402-415^pSer408 (PIN1-NRF2 interaction [1]): 92 fold | fold reduction in binding affinity of NRF2_571-584^pSer577 (PIN1-NRF2 interaction [1]): 149 fold | extent of covalent PIN1 modification (PIN1 [4]): only a small amount of covalent PIN1 modification was observed | mass increase of the major modified PIN1 species (PIN1 [4]): 353 Da

CSCC[C@H](NC(=O)[C@@H](NC(=O)[C@@H](NC(=O)[C@H](CCC(=O)O)NC(=O)CCCCCNC(=S)Nc1ccc2c(c1)C(=O)OC21c2ccc(O)cc2Oc2cc(O)ccc21)[C@@H](C)O)[C@@H](C)O)C(=O)N[C@H](C(=O)N1CCC[C@H]1C(=O)N[C@@H](COP(=O)(O)O)C(=O)N1CCC[C@H]1C(=O)N[C@@H](CCC(=O)O)C(=O)N[C@@H](C)C(=O)N[C@@H](CCCCN)C(=O)N[C@@H](CC(C)C)C(=O)N[C@H](C(=O)N[C@@H](CCC(=O)O)C(=O)O)[C@@H](C)O)C(C)C [NRF2_209-222^pSer215, ETTMVPpSPEAKLTE] ({FITC-Ahx}-ETTMVP[pS]PEAKLTE-OH; N-terminus assumed)
fold weaker interaction with PIN1 than the optimised Pintide ligand (GST-PIN1 [5]): tenfold

CSCC[C@H](NC(=O)[C@H](CC(=O)O)NC(=O)CCCCCNC(=S)Nc1ccc2c(c1)C(=O)OC21c2ccc(O)cc2Oc2cc(O)ccc21)C(=O)N[C@H](C(=O)N[C@@H](CCC(N)=O)C(=O)N1CCC[C@H]1C(=O)N[C@@H](CC(C)C)C(=O)N[C@@H](COP(=O)(O)O)C(=O)N1CCC[C@H]1C(=O)N[C@@H](CO)C(=O)N[C@@H](CCC(N)=O)C(=O)NCC(=O)N[C@@H](CCC(N)=O)C(=O)N[C@@H](CO)C(=O)N[C@H](C(=O)O)[C@@H](C)O)C(C)C [NRF2_402-415^pSer408, DMVQPLpSPSQGQST] ({FITC-Ahx}-DMVQPL[pS]PSQGQST-OH; N-terminus assumed)
fold weaker interaction with PIN1 than the optimised Pintide ligand (GST-PIN1 [5]): ~ 13 fold

O=C1C=CC(=O)c2c(O)cccc21 [juglone]
IC50 (PIN1-NRF2 interaction [2]; GST-PIN1 1 µM, labelled NRF2_209-222^pSer215 10 nM, read-out: IC50, inhibition of NRF2_209-222^pSer215 binding to PIN1): 26800 nM | IC50 (PIN1-NRF2 interaction [2]; [14]): 20000 nM | IC50 (PIN1-NRF2 interaction [2]; [15]): 30000 nM | fold reduction in binding affinity of NRF2_209-222^pSer215 (PIN1-NRF2 interaction [1]): 8 fold | fold reduction in binding affinity of NRF2_402-415^pSer408 (PIN1-NRF2 interaction [1]): 18 fold | fold reduction in binding affinity of NRF2_571-584^pSer577 (PIN1-NRF2 interaction [1]): sixfold

B1: fluorescein-labelled NRF2(402-415) pSer408 phospho-peptide (peptide)
peptide: {fluorescein-Ahx}-DMVQPL[pS]PSQGQST-OH
notes: NRF2 (nuclear factor erythroid 2-related factor 2), residues 402-415, linker between the Neh6 and Neh1 domains; source: synthetic peptide, bought: China Peptides
Kd (GST-PIN1 [6]): 1590 nM | Kd (GST-PIN1 [7]): 221 ± 40 nM | Kd (GST-PIN1 [8]): 20200 nM | Kd (GST-PIN1 [9]): 3900 nM

B2: fluorescein-labelled NRF2(571-584) pSer577 phospho-peptide (peptide)
peptide: {fluorescein-Ahx}-EDGKPY[pS]PSEYDLQ-OH
notes: NRF2 (nuclear factor erythroid 2-related factor 2), residues 571-584, in the Neh3 domain; see recheck for residue 582; source: synthetic peptide, bought: China Peptides
Kd (GST-PIN1 [6]): 1760 nM | Kd (GST-PIN1 [7]): 168 ± 25 nM | Kd (GST-PIN1 [10]): 200 nM | Kd (GST-PIN1 [8]): 25300 nM | Kd (GST-PIN1 [9]): 1000 nM

B3: fluorescein-labelled NRF2(209-222) pSer215 phospho-peptide (peptide)
peptide: {fluorescein-Ahx}-ETTMVP[pS]PEAKLTE-OH
notes: NRF2 (nuclear factor erythroid 2-related factor 2), residues 209-222, in the Neh7 domain; also called Peptide 1; source: synthetic peptide, bought: China Peptides
Kd (GST-PIN1 [6]): 1070 nM | Kd (GST-PIN1 [7]): 157 ± 15 nM | Kd (GST-PIN1 [8]): 4040 nM | Kd (GST-PIN1 [9]): 1300 nM

B4: Pintide, fluorescently labelled (peptide)
peptide: WFY[pS]PFLE
modifications: also: fluorescently labelled, site not given here
notes: source: synthetic peptide, bought: China Peptides
Kd (GST-PIN1 [7]): 17 ± 3 nM

B5: Pintide (competitor, not labelled) (peptide)
peptide: WFY[pS]PFLE
notes: also called WW domain-selective Pintide; source: synthetic peptide, bought: China Peptides
IC50 (GST-PIN1 [11]): 5700 nM | IC50 (GST-PIN1 [12]): 6800 nM | IC50 (GST-PIN1 [13]): 6700 nM

From publication PMC11909128, “Identification and inhibition of PIN1-NRF2 protein–protein interactions through computational and biophysical approaches” (Scientific Reports, 2025)
